Reference: US20100267819A1, “PHARMACEUTICAL COMPOSITION FOR DIABETIC NEPHROPATHY AND ITS PREPARATION AND APPLICATION” (Guangzhou Consun Medicine R&D Medicine, priority 2009, published 2010)

Tests used:
[1] = system: Rat messangial cell cell line HBZY-1; assay: Extracellular matrix accrementition of rat mesangial cells cultured under high glucose (PAS staining); type: cell-based; details: high glucose 25 mmol/L, 48 h, extract 0.1 g/L, compounds 1, 0.1, 0.01 μmol/L, co-use 0.06:0.03, 0.05:0.05, 0.03:0.06 μmol/L
Protocol: (§1) Take the rat mesangial cells in log phase growth, prepare into unicell suspension (5×10^4 cells/ml) with 5% DMEM medium of newborn calf serum, inoculate to the 24 well plate coated with coverslip for 1 ml/well (cell quantity: 5×10^4/well), incubated under 5% CO2 incubator at 37° C. for 24 hours, added the DMEM medium without serum, incubated 24 hours to make all the cells to anestrum. Discard the supernatant, added 900 μl DMEM medium and 100 μl different concentration amylaceum (each concentration for 3 repeat) and incubated 24 h, 48 h, 72 h and 96 h, respectively. Observed the modeling results after staining with HE and PAS. […] Put the coverslips pre-treatment by poly-L-lysine into 24-well cell culture plates before added the unicell suspension, then cultured these cells until the step of synchronization. […] Each group repeats for 3 times. Then, all the groups are incubated under 5% CO2 incubator at 37° C. for 48 h. After that, take out of the coverslips for HE staining, PAS staining and immunocytochemistry staining Routine HE Staining, Routine PAS Staining, CTGF Staining

[2] = system: CTGF; assay: CTGF express of rat mesangial cells cultured under high glucose (immunocytochemistry); type: cell-based; details: high glucose 25 mmol/L, 48 h, CTGF staining; extract 0.1 g/L, compounds 1, 0.1, 0.01 μmol/L, co-use 0.06:0.03, 0.05:0.05, 0.03:0.06 μmol/L
Protocol: as §1, with “Routine HE Staining, Routine PAS Staining, CTGF Staining” left out

[3] = system: Rat messangial cell cell line HBZY-1; assay: Hypertrophy of rat mesangial cells cultured under high glucose (HE staining); type: cell-based; details: high glucose 25 mmol/L, 48 h, extract 0.1 g/L, compounds 1, 0.1, 0.01 μmol/L, co-use 0.06:0.03, 0.05:0.05, 0.03:0.06 μmol/L
Protocol: as §1

[4] = system: db|db mouse; assay: Urine volume, urine total protein and urine creatinine in 24 hours of db|db mouse in diabetic nephropathy; type: in vivo; details: for Total protein / Urine creatinine / Urine volume: 24 hour urine after 5 weeks; for urine creatinine in 24 hours / urine total protein in 24 hours / urine volume in 24 hours: vs model group
Protocol: (§2) During the experiment, all the mouse are bred in lamina flow cage, free to food and water. Water and underpad are changed every day to keep the cage clean, and the water, seedstuff, underpad are stationary. […] All the appliances and food are sterilized everyday. […] Moreover, 10 8-week-old B6 mouse are taken as the normal control. Each group is given 0.4 ml corresponding drug in different concertration or physiological saline by intragastric administration for 5 weeks. Determinate the food-intake and water-intake, weigh every week, determinate the blood glucose every week.

[5] = system: db|db mouse; assay: Kidney weight and kidney index of db|db mouse in diabetic nephropathy; type: in vivo; details: after 5 weeks; for Kidned index: kidney weight/body weight×1000
Protocol: as §2

[6] = system: db|db mouse; assay: Weight of db|db mouse of diabetic nephropathy; type: in vivo; details: for Weight: db|db mouse; for weight of db|db mouse: vs model group, P<0.05, intragastric
Protocol: as §2

[7] = system: db|db mouse; assay: Blood glucose of db|db mouse in diabetic nephropathy; type: in vivo; details: for Blood glucose value: db|db mouse; for blood glucose of db|db mouse: final phase of administration, vs model group, P<0.05
Protocol: as §2

[8] = 2 weeks, 0.5 mg/kg intragastric
[9] = 2 weeks, 1.0 mg/kg intragastric
[10] = 2 weeks, 2.0 mg/kg intragastric
[11] = 3 weeks, 0.5 mg/kg intragastric
[12] = 3 weeks, 1.0 mg/kg intragastric
[13] = 3 weeks, 2.0 mg/kg intragastric
[14] = 4 weeks, 0.5 mg/kg intragastric
[15] = 4 weeks, 1.0 mg/kg intragastric
[16] = 4 weeks, 2.0 mg/kg intragastric
[17] = 5 weeks, 0.5 mg/kg intragastric
[18] = 5 weeks, 1.0 mg/kg intragastric
[19] = 5 weeks, 2.0 mg/kg intragastric

## COc1cc2ccc(=O)oc2cc1O [7-hydroxy-6-methoxycomarin, 7-hydroxy-6-methoxycoumarin]
[1]
  extracellular matrix of rat mesangial cells induced by high glucose: decrease the extracellular matrix
[2]
  CTGF express of rat mesangial cells induced by high glucose: decrease the CTGF express
[3]
  hypertrophy of rat mesangial cells induced by high glucose: restrain significantly the hypertrophy
[4]; 0.5 mg/kg intragastric
  Total protein: 1.398 ± 0.372 mg
  Urine creatinine: 1.85 ± 0.56 mmol/L
  Urine volume: 0.95 ± 0.34 mL
[4]; 1.0 mg/kg intragastric
  Total protein: 1.102 ± 0.249 mg
  Urine creatinine: 3.20 ± 0.85 mmol/L
  Urine volume: 0.75 ± 0.25 mL
[4]; 2.0 mg/kg intragastric
  Total protein: 0.878 ± 0.352 mg
  Urine creatinine: 2.81 ± 0.76 mmol/L
  Urine volume: 0.78 ± 0.31 mL
[4]
  urine creatinine in 24 hours: elevate the urine creatinine
  urine total protein in 24 hours: decrease
  urine volume in 24 hours: decrease the urine volume
[5]
  kidney index: obviously decrease
  kidney weight: obviously decrease
[5]; 0.5 mg/kg intragastric
  Kidned weight: 0.29 ± 0.02 g
  Kidned index: 12.6 ± 1.0 ‰
[5]; 1.0 mg/kg intragastric
  Kidned weight: 0.25 ± 0.03 g
[5]; 2.0 mg/kg intragastric
  Kidned weight: 0.24 ± 0.04 g
  Kidned index: 9.1 ± 1.7 ‰
[6]; 0 week, 0.5 mg/kg intragastric
  Weight: 23.2 ± 0.6 g
[6]; 0 week, 1.0 mg/kg intragastric
  Weight: 24.1 ± 0.5 g
[6]; 0 week, 2.0 mg/kg intragastric
  Weight: 23.9 ± 0.5 g
[6]; 1 week, 0.5 mg/kg intragastric
  Weight: 30.6 ± 1.2 g
[6]; 1 week, 1.0 mg/kg intragastric
  Weight: 31.8 ± 1.0 g
[6]; 1 week, 2.0 mg/kg intragastric
  Weight: 32.0 ± 1.3 g
[6]; [8]
  Weight: 36.4 ± 1.5 g
[6]; [9]
  Weight: 33.7 ± 1.4 g
[6]; [10]
  Weight: 34.3 ± 1.9 g
[6]; [11]
  Weight: 40.1 ± 2.5 g
[6]; [12]
  Weight: 38.8 ± 1.4 g
[6]; [13]
  Weight: 39.5 ± 1.8 g
[6]; [14]
  Weight: 43.0 ± 2.1 g
[6]; [15]
  Weight: 42.5 ± 2.5 g
[6]; [16]
  Weight: 44.0 ± 3.2 g
[6]; [17]
  Weight: 47.0 ± 3.9 g
[6]; [18]
  Weight: 45.8 ± 3.0 g
[6]; [19]
  Weight: 45.7 ± 4.5 g
[6]; 5 weeks
  weight of db|db mouse: restrain the weight
[7]; 1 week, 0.5 mg/kg intragastric
  Blood glucose value: 13.3 ± 4.5 mmol/L
[7]; 1 week, 1.0 mg/kg intragastric
  Blood glucose value: 13.5 ± 4.0 mmol/L
[7]; 1 week, 2.0 mg/kg intragastric
  Blood glucose value: 13.8 ± 4.7 mmol/L
[7]; [8]
  Blood glucose value: 13.4 ± 2.7 mmol/L
[7]; [9]
  Blood glucose value: 13.0 ± 3.2 mmol/L
[7]; [10]
  Blood glucose value: 13.3 ± 2.7 mmol/L
[7]; [11]
  Blood glucose value: 13.5 ± 3.2 mmol/L
[7]; [12]
  Blood glucose value: 12.6 ± 4.8 mmol/L
[7]; [13]
  Blood glucose value: 13.1 ± 4.7 mmol/L
[7]; [14]
  Blood glucose value: 12.1 ± 3.6 mmol/L
[7]; [15]
  Blood glucose value: 10.8 ± 2.5 mmol/L
[7]; [16]
  Blood glucose value: 10.4 ± 3.9 mmol/L
[7]; [17]
  Blood glucose value: 13.0 ± 2.2 mmol/L
[7]; [18]
  Blood glucose value: 10.4 ± 2.5 mmol/L
[7]; [19]
  Blood glucose value: 11.3 ± 4.4 mmol/L
[7]
  blood glucose of db|db mouse: remarkably decrease the blood glucose

## O=c1ccc2ccc(O)cc2o1 [7-hydroxycoumarin]
[1]
  extracellular matrix of rat mesangial cells induced by high glucose: decrease the extracellular matrix
[2]
  CTGF express of rat mesangial cells induced by high glucose: decrease the CTGF express
[3]
  hypertrophy of rat mesangial cells induced by high glucose: restrain significantly the hypertrophy
[4]; 0.5 mg/kg intragastric
  Total protein: 1.205 ± 0.541 mg
  Urine creatinine: 2.06 ± 0.65 mmol/L
  Urine volume: 1.03 ± 0.28 mL
[4]; 1.0 mg/kg intragastric
  Total protein: 0.996 ± 0.338 mg
  Urine creatinine: 2.30 ± 0.71 mmol/L
  Urine volume: 0.72 ± 0.30 mL
[4]; 2.0 mg/kg intragastric
  Total protein: 1.147 ± 0.305 mg
  Urine creatinine: 2.79 ± 0.54 mmol/L
  Urine volume: 0.74 ± 0.33 mL
[4]
  urine creatinine in 24 hours: elevate the urine creatinine
  urine total protein in 24 hours: decrease
  urine volume in 24 hours: decrease the urine volume
[5]
  kidney index: obviously decrease
  kidney weight: obviously decrease
[5]; 0.5 mg/kg intragastric
  Kidned weight: 0.28 ± 0.04 g
  Kidned index: 11.8 ± 1.5 ‰
[5]; 1.0 mg/kg intragastric
  Kidned weight: 0.26 ± 0.03 g
[5]; 2.0 mg/kg intragastric
  Kidned weight: 0.27 ± 0.02 g
  Kidned index: 9.4 ± 0.3 ‰
[6]; 0 week, 0.5 mg/kg intragastric
  Weight: 24.5 ± 0.5 g
[6]; 0 week, 1.0 mg/kg intragastric
  Weight: 23.4 ± 0.5 g
[6]; 0 week, 2.0 mg/kg intragastric
  Weight: 23.7 ± 0.6 g
[6]; 1 week, 0.5 mg/kg intragastric
  Weight: 31.5 ± 1.5 g
[6]; 1 week, 1.0 mg/kg intragastric
  Weight: 30.2 ± 1.4 g
[6]; 1 week, 2.0 mg/kg intragastric
  Weight: 30.3 ± 0.5 g
[6]; [8]
  Weight: 35.8 ± 1.8 g
[6]; [9]
  Weight: 34.6 ± 1.4 g
[6]; [10]
  Weight: 35.5 ± 1.7 g
[6]; [11]
  Weight: 39.4 ± 2.0 g
[6]; [12]
  Weight: 40.0 ± 2.7 g
[6]; [13]
  Weight: 38.6 ± 1.9 g
[6]; [14]
  Weight: 43.9 ± 3.1 g
[6]; [15]
  Weight: 43.1 ± 2.8 g
[6]; [16]
  Weight: 42.3 ± 2.8 g
[6]; [17]
  Weight: 46.4 ± 4.6 g
[6]; [18]
  Weight: 45.2 ± 4.1 g
[6]; [19]
  Weight: 46.1 ± 5.3 g
[6]; 5 weeks
  weight of db|db mouse: restrain the weight
[7]; 1 week, 0.5 mg/kg intragastric
  Blood glucose value: 13.7 ± 4.1 mmol/L
[7]; 1 week, 1.0 mg/kg intragastric
  Blood glucose value: 13.4 ± 4.6 mmol/L
[7]; 1 week, 2.0 mg/kg intragastric
  Blood glucose value: 13.0 ± 3.6 mmol/L
[7]; [8]
  Blood glucose value: 13.6 ± 2.9 mmol/L
[7]; [9]
  Blood glucose value: 13.4 ± 2.6 mmol/L
[7]; [10]
  Blood glucose value: 13.1 ± 5.1 mmol/L
[7]; [11]
  Blood glucose value: 12.9 ± 2.9 mmol/L
[7]; [12]
  Blood glucose value: 13.9 ± 4.3 mmol/L
[7]; [13]
  Blood glucose value: 13.7 ± 5.1 mmol/L
[7]; [14]
  Blood glucose value: 11.2 ± 4.0 mmol/L
[7]; [15]
  Blood glucose value: 11.2 ± 4.4 mmol/L
[7]; [16]
  Blood glucose value: 10.1 ± 2.4 mmol/L
[7]; [17]
  Blood glucose value: 12.1 ± 1.9 mmol/L
[7]; [18]
  Blood glucose value: 10.3 ± 2.0 mmol/L
[7]; [19]
  Blood glucose value: 10.6 ± 3.0 mmol/L
[7]
  blood glucose of db|db mouse: remarkably decrease the blood glucose
